According to ChEMBL document CHEMBL4808209 (J Med Chem, 2021):
≈ marks a conversion by molar mass, not a printed value.

Experiments:
[1] = molecular target: Alpha-2A adrenergic receptor (Homo sapiens, UniProt P08913); test: Inhibition of adrenergic alpha 2A receptor (unknown origin) at 0.1 to 1 uM; details: dose 0.1-1 µM
[2] = molecular target: Sodium-dependent serotonin transporter (Homo sapiens, UniProt P31645); test: Inhibition of serotonin transporter (unknown origin) at 0.1 to 1 uM; assay type: ADME; details: dose 0.1-1 µM
Sodium-dependent serotonin transporter, sequence (P31645 whole entry): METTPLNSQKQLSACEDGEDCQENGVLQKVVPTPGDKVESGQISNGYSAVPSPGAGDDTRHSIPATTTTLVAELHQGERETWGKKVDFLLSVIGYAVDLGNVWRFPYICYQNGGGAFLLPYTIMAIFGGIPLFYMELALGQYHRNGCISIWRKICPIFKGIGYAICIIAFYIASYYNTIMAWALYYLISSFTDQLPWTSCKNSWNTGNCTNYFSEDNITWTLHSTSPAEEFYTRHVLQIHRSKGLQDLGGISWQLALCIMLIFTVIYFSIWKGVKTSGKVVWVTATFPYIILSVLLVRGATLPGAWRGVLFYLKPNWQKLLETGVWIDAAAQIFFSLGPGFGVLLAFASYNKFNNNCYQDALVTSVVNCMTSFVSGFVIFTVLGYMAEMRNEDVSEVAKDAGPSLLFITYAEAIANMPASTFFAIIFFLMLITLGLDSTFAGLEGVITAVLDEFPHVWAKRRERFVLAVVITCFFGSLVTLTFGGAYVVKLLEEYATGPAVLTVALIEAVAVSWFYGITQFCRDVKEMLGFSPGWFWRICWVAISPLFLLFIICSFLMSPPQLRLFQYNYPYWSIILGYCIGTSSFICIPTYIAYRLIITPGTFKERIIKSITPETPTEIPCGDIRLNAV

[3] = Oral bioavailability in cynomolgus monkey at 2 mg/kg administered as cassette dose measured after 24 hrs; assay type: ADME, organism-based, Macaca fascicularis; details: in vivo
[4] = tested on: Neuronal acetylcholine receptor; test: Inhibition of neuronal nicotinic receptor (unknown origin) at 0.1 to 1 uM; assay type: protein-complex assay; details: human, dose 0.1-1 µM
[5] = molecular target: 5-hydroxytryptamine receptor 2C (Homo sapiens, UniProt P28335); test: Inhibition of 5HT2C receptor (unknown origin) at 0.1 to 1 uM; details: dose 0.1-1 µM
[6] = molecular target: Voltage-gated inwardly rectifying potassium channel KCNH2 (Homo sapiens, UniProt Q12809); test: Inhibition of human ERG at 0.1 to 1 uM; details: dose 0.1-1 µM
[7] = molecular target: Muscarinic acetylcholine receptor M5 (Homo sapiens, UniProt P08912); test: Inhibition of human muscarinic M5 receptor at 0.1 to 1 uM; details: dose 0.1-1 µM
Muscarinic acetylcholine receptor M5, sequence (P08912 whole entry): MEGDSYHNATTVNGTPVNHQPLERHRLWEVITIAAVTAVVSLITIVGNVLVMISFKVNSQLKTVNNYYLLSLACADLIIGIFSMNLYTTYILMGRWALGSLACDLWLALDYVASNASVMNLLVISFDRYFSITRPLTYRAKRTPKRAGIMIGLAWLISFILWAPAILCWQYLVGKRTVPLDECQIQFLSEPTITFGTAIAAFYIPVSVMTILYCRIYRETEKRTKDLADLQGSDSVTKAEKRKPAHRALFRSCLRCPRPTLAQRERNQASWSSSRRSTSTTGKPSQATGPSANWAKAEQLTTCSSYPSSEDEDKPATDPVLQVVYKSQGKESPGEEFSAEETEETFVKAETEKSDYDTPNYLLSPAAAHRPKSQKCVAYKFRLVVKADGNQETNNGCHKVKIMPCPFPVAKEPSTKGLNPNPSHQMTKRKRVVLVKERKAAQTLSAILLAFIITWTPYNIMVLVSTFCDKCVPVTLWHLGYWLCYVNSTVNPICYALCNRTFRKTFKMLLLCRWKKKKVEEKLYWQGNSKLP

[8] = Clearance in cynomolgus monkey at 2 mg/kg, po or 0.5 mg/kg, iv administered as cassette dose measured after 24 hrs relative to hepatic blood flow; assay type: ADME, organism-based, Macaca fascicularis; details: in vivo
[9] = molecular target: Sigma intracellular receptor 2 (Homo sapiens, UniProt Q5BJF2); test: Inhibition of sigma 2 receptor (unknown origin) at 0.1 to 1 uM; details: dose 0.1-1 µM
[10] = molecular target: D(4) dopamine receptor (Homo sapiens, UniProt P21917); test: Inhibition of human dopamine D4.4 receptor at 0.1 to 1 uM; details: dose 0.1-1 µM
[11] = Oral bioavailability in Sprague-Dawley rat at 2 mg/kg administered as cassette dose measured after 24 hrs; assay type: ADME, organism-based; details: in vivo
[12] = molecular target: Muscarinic acetylcholine receptor M4 (Homo sapiens, UniProt P08173); test: Inhibition of human muscarinic M4 receptor at 0.1 to 1 uM; details: dose 0.1-1 µM
[13] = molecular target: B2 bradykinin receptor (Homo sapiens, UniProt P30411); test: Inhibition of BK2 (unknown origin) at 0.1 to 1 uM; details: dose 0.1-1 µM
[14] = molecular target: Mu-type opioid receptor (Homo sapiens, UniProt P35372); test: Inhibition of human mu opioid receptor at 0.1 to 1 uM; details: dose 0.1-1 µM
[15] = molecular target: Histamine H3 receptor (Homo sapiens, UniProt Q9Y5N1); test: Inhibition of histamine H3 receptor (unknown origin) at 0.1 to 1 uM; details: dose 0.1-1 µM
[16] = molecular target: Muscarinic acetylcholine receptor M2 (Homo sapiens, UniProt P08172); test: Inhibition of human muscarinic M2 receptor at 0.1 to 1 uM; details: dose 0.1-1 µM
[17] = molecular target: CYP2C19 (Homo sapiens, UniProt P33261); test: Inhibition of CYP2C19 in human liver microsomes using s-mephenytoin as substrate substrate in presence of NADPH by LC-MS/MS analysis; assay type: ADME; details: human, liver microsomes, probe s-mephenytoin
[18] = molecular target: 5-hydroxytryptamine receptor 4 (Homo sapiens, UniProt Q13639); test: Inhibition of 5HT4 receptor (unknown origin) at 0.1 to 1 uM; details: dose 0.1-1 µM
[19] = molecular target: Delta-type opioid receptor (Homo sapiens, UniProt P41143); test: Inhibition of human delta opioid receptor at 0.1 to 1 uM; details: dose 0.1-1 µM
[20] = tested on: KATO III; test: Antitumor activity against human KATO III stomach cancer cell line xenografted in po dosed SCID mouse assessed as tumor growth inhibition administered once daily for 10 days; assay type: functional, organism-based; details: dose 0.03-1 mg/kg, time 10.0 day
[21] = molecular target: CYP1A2 (Homo sapiens, UniProt P05177); test: Inhibition of CYP1A2 in human liver microsomes using 7-ethoxyresorufin as substrate substrate in presence of NADPH by LC-MS/MS analysis; assay type: ADME; details: human, liver microsomes, probe 7-ethoxyresorufin
[22] = Half life in Sprague-Dawley rat at 2 mg/kg, po or 1 mg/kg, iv administered as cassette dose measured after 24 hrs; assay type: ADME, organism-based; details: in vivo
[23] = molecular target: D(3) dopamine receptor (Homo sapiens, UniProt P35462); test: Inhibition of dopamine D3 receptor (unknown origin) at 0.1 to 1 uM; details: dose 0.1-1 µM
[24] = Volume of distribution at steady state in cynomolgus monkey at 2 mg/kg, po or 0.5 mg/kg, iv administered as cassette dose measured after 24 hrs; assay type: ADME, organism-based, Macaca fascicularis; details: in vivo, read-out: Vdss
[25] = Toxicity in SCID mouse xenografted with human KATO III stomach cancer cell line assessed as effect on boy weight at 0.03 to 1 mg/kg, po administered once daily for 10 days; assay type: organism-based; details: in vivo, 240 h, dose 0.03-1 mg/kg, time 10 day
[26] = molecular target: Muscarinic acetylcholine receptor M1 (Homo sapiens, UniProt P11229); test: Inhibition of human muscarinic M1 receptor at 0.1 to 1 uM; details: dose 0.1-1 µM
[27] = molecular target: CYP2D6 (Homo sapiens, UniProt P10635); test: Inhibition of CYP2D6 in human liver microsomes using bufuralol as substrate substrate in presence of NADPH by LC-MS/MS analysis; assay type: ADME; details: human, liver microsomes, probe bufuralol
CYP2D6, sequence (P10635 whole entry): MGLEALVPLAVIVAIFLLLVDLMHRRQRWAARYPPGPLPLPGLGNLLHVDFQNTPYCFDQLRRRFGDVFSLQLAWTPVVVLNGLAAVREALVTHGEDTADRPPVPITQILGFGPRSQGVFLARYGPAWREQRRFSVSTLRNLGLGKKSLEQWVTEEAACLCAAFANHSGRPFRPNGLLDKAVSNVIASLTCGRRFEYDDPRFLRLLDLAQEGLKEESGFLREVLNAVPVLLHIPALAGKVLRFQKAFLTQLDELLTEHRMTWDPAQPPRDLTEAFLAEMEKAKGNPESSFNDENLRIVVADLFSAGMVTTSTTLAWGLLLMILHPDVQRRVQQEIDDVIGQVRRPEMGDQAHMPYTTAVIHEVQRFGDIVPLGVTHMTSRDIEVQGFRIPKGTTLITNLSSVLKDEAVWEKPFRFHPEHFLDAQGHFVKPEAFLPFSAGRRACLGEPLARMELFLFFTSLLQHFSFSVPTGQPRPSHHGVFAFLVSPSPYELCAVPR

[28] = Inhibition of calcium channel, Type N (unknown origin) at 0.1 to 1 uM; details: human, dose 0.1-1 µM
[29] = molecular target: Muscarinic acetylcholine receptor M3 (Homo sapiens, UniProt P20309); test: Inhibition of human muscarinic M3 receptor at 0.1 to 1 uM; details: dose 0.1-1 µM
[30] = Oral bioavailability in Beagle dog at 2 mg/kg measured after 24 hrs; assay type: ADME, organism-based, Canis lupus familiaris; details: in vivo
[31] = molecular target: Adenosine receptor A1 (Homo sapiens, UniProt P30542); test: Inhibition of adenosine A1 receptor (unknown origin) at 0.1 to 1 uM; details: dose 0.1-1 µM
[32] = Solubility of the compound in FaSSIF by HPLC analysis; assay type: physicochemical
[33] = molecular target: 5-hydroxytryptamine receptor 5A (Homo sapiens, UniProt P47898); test: Inhibition of human 5HT5A receptor at 0.1 to 1 uM; details: dose 0.1-1 µM
5-hydroxytryptamine receptor 5A, sequence (P47898 whole entry): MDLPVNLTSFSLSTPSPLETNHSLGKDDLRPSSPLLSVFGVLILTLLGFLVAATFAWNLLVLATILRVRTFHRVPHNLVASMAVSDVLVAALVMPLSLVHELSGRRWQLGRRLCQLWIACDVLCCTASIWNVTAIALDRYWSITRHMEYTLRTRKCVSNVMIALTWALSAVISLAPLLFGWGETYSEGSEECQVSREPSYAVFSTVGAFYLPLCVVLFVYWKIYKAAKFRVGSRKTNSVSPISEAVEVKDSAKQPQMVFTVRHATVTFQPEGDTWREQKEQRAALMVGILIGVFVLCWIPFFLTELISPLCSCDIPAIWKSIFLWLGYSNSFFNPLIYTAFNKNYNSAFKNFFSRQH

[34] = molecular target: CYP2B6 (Homo sapiens, UniProt P20813); test: Inhibition of CYP2B6 in human liver microsomes using bupropion as substrate substrate in presence of NADPH by LC-MS/MS analysis; assay type: ADME; details: probe bupropion
CYP2B6, sequence (P20813 whole entry): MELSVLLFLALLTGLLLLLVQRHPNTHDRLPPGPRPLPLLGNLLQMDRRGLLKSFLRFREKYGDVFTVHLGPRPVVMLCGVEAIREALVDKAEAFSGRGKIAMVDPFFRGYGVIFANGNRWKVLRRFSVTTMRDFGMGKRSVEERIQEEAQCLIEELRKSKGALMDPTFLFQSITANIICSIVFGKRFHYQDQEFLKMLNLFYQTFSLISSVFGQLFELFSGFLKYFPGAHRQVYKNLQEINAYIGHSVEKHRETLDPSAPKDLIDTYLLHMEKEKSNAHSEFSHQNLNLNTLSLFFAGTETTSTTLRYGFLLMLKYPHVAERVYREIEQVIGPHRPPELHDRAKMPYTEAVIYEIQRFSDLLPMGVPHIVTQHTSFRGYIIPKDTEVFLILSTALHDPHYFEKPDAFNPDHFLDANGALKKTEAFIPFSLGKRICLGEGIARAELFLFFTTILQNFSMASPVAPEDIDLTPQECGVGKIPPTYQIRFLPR

[35] = molecular target: CYP2C9 (Homo sapiens, UniProt P11712); test: Inhibition of CYP2C9 in human liver microsomes using diclofenac as substrate substrate in presence of NADPH by LC-MS/MS analysis; assay type: ADME; details: human, liver microsomes, probe diclofenac
[36] = molecular target: Sodium-dependent dopamine transporter (Homo sapiens, UniProt Q01959); test: Inhibition of dopamine transporter (unknown origin) at 0.1 to 1 uM; assay type: ADME; details: dose 0.1-1 µM
Sodium-dependent dopamine transporter, sequence (Q01959 whole entry): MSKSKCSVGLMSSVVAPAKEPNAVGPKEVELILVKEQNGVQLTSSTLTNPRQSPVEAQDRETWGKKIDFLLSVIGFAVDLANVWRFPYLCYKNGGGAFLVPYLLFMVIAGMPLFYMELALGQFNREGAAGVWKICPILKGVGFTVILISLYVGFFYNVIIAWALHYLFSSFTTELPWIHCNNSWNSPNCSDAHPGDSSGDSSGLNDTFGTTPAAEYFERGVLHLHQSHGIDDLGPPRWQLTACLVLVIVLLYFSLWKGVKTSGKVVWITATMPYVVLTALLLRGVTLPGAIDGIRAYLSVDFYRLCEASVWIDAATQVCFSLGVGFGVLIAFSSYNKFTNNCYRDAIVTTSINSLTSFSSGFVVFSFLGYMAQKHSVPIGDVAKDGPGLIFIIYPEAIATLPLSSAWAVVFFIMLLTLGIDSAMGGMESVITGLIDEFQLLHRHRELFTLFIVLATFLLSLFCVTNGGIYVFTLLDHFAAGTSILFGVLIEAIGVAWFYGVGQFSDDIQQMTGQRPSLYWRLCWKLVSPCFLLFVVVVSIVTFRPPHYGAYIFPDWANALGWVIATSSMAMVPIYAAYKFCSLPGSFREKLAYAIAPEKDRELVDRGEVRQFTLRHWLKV

[37] = molecular target: GABA-B receptor (Homo sapiens, UniProt Q9UBS5+O75899); test: Inhibition of GABA-B receptor (unknown origin) at 0.1 to 1 uM; assay type: protein-complex assay; details: dose 0.1-1 µM
GABA-B receptor, sequence (Q9UBS5 whole entry): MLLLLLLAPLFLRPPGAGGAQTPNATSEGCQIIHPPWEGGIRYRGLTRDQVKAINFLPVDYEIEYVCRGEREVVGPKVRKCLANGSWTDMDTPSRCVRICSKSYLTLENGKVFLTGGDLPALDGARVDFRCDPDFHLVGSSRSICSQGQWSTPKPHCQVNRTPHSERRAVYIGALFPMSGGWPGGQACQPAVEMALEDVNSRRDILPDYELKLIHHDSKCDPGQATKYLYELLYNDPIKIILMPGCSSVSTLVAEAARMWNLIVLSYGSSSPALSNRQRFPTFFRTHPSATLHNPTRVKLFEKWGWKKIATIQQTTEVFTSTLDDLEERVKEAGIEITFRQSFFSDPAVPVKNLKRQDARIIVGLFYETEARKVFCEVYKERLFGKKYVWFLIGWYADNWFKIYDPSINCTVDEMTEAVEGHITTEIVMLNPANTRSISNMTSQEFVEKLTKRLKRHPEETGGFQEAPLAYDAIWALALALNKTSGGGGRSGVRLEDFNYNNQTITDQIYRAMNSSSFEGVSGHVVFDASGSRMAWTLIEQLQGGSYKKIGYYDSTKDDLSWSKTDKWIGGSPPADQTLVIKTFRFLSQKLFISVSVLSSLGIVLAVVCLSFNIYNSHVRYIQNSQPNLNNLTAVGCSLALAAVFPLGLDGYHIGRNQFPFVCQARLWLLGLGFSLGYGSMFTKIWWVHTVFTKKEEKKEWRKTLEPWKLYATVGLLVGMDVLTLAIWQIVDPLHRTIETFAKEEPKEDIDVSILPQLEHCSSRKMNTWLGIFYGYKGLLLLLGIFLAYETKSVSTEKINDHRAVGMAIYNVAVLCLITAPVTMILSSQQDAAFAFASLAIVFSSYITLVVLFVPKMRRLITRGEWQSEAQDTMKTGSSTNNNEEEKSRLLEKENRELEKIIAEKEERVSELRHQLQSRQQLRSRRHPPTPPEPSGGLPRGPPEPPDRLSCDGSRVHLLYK
GABA-B receptor, sequence (O75899 whole entry): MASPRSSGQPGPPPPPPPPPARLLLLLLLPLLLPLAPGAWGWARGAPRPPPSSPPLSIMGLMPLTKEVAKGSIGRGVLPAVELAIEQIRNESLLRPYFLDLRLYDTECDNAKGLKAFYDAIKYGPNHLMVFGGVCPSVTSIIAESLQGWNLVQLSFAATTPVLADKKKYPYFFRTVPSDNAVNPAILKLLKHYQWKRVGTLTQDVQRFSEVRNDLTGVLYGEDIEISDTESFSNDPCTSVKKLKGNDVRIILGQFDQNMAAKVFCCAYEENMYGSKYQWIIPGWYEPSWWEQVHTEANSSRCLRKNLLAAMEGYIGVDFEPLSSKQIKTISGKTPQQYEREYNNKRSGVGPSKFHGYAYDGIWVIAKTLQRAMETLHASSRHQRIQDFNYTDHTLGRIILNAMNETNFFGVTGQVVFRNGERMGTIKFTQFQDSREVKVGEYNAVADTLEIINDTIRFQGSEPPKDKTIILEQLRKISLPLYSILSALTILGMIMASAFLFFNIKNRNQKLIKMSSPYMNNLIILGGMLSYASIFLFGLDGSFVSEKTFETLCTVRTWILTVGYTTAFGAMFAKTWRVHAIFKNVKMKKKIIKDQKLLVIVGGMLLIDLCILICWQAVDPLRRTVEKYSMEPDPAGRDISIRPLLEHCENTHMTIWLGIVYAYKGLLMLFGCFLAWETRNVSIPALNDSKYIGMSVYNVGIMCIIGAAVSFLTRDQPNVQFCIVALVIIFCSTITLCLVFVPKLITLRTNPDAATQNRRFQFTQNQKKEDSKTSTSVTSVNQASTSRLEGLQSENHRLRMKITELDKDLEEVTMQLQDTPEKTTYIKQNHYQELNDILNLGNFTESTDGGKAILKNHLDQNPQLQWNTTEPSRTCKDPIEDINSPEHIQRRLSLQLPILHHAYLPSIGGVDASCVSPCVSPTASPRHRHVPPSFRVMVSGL

[38] = Toxicity in SCID mouse xenografted with human KATO III stomach cancer cell line assessed as drug tolerance at 0.03 to 1 mg/kg, po administered once daily for 10 days; assay type: organism-based; details: in vivo, 240 h, dose 0.03-1 mg/kg, time 10 day
[39] = molecular target: 5-hydroxytryptamine receptor 1D (Homo sapiens, UniProt P28221); test: Inhibition of 5HT1D receptor (unknown origin) at 0.1 to 1 uM; details: dose 0.1-1 µM
[40] = molecular target: hERG (KCNH2) (Homo sapiens, UniProt Q12809); test: Inhibition of human ERG at 5 uM by patch clamp method relative to control

Which results are given for `CCN1C(=O)N(c2c(F)c(OC)cc(OC)c2F)Cc2cnc3[nH]c(CN4CCOCC4)cc3c21` [PEMIGATINIB]?
inhibition (INH) [1]: Not Active; inhibition (INH) [2]: Not Active; bioavailability [3]: 29%; inhibition (INH) [4]: Not Active; inhibition (INH) [5]: Not Active; inhibition (INH) [6]: Not Active; inhibition (INH) [7]: Not Active; CL [8]: 8%; inhibition (INH) [9]: Not Active; inhibition (INH) [10]: Not Active; bioavailability [11]: > 100%; inhibition (INH) [12]: Not Active; inhibition (INH) [13]: Not Active; inhibition (INH) [14]: Not Active; inhibition (INH) [15]: Not Active; inhibition (INH) [16]: Not Active; IC50 [17]: > 25 µM; inhibition (INH) [18]: Not Active; inhibition (INH) [19]: Not Active; TGI [20]: Dose-Dependent Effect; IC50 [21]: > 25 µM; half-life [22]: 4 h; inhibition (INH) [23]: Not Active; Vd [24]: 0.58 L/kg; Activity [25]: Non-Toxic; inhibition (INH) [26]: Not Active; IC50 [27]: > 25 µM; inhibition (INH) [28]: Not Active; inhibition (INH) [29]: Not Active; bioavailability [30]: 98%; inhibition (INH) [31]: Not Active; solubility [32]: 11 µg/mL (≈ 22.6 µM); inhibition (INH) [33]: Not Active; IC50 [34]: > 25 µM; IC50 [35]: > 25 µM; inhibition (INH) [36]: Not Active; inhibition (INH) [37]: Not Active; Activity [38]: Non-Toxic; inhibition (INH) [39]: Not Active; inhibition at 5 µM [40]: 9%
